Measured values as given in patent publication US20240190903A1, “COMPOUNDS FOR PROGRAMMABLE PROTEIN DEGRADATION AND METHODS OF USE FOR THE TREATMENT OF DISEASE” (Mayo Foundation for Medical Education and Research, priority 2021, published 2024).

Key:
293T and VCaP cell lines = experiment: Fluorescent microscopy of FITC-labelled ERG O′PROTAC transfection/uptake; assay type: cell-based, human; conditions: 293T cells
Procedure: FIGS. 2A-2C. ERG O′PROTACs degrade ERG protein in cultured cells. (FIG. 2A) 293T cells were transfected with FITC-labelled ERG O′PROTAC-13 (100 nM and 1,000 nM), and the transfection efficiency was monitored 48 hours post-transfection using a fluorescent microscope. Scale bar: 50 μm. (FIG. 2B) 293T cells were transfected with HA-ERG plasmid and a control or six indicated ERG O′PROTACs (100 nM) and harvested for western blot analysis 48 hours post-transfection. ERK2 was used as a loading control. (FIG. 2C) VCaP cells were transfected with a control or six indicated ERG O′PROTACs (100 nM), and cells were harvested for western blot analysis 48 hours post-transfection. Both endogenous full-length (FL) wild-type and TMPRSS2-ERG (T2-ERG) truncated ERG were detected.
FIGS. 12A-12H. Phthalic acid-based ERG O′PROTAC degrades ERG oncoprotein. […] The P values were determined using the unpaired two-tailed Student's t-test. n.s. represents not significant by comparing the values in ERG O′PROTAC-treated groups to the control OP-treated group. […] The remaining ERG protein (%) was calculated by normalizing the value of each group to that of the group without ERG OP-C-P1 treatment. (FIG. 12H) The concentration of ERG OP-C-P1 degrading 50% of ERG protein (DC50) was calculated with Prism software. […]

VCaP cells = experiment: MTS cell growth assay in VCaP cells; assay type: cell-based, human; conditions: compound added to cells, different doses
Procedure: VCaP cells were seeded at the density of 5,000 cells per well in 96-well plate overnight. At the indicated time points, optical density (OD) of cells was measured by microtiter reader (Biotek) at 490 nanometer after incubation with MTS (Promega) for 2 hours at 37° C. in a cell incubator. For the treatment with CP-2, ICG-001 or PRI-724, cells were seeded in 96-well plate overnight followed by adding indicated compounds. OD values were measured at the indicated time points.

[1] = test system: PSGs and canonical β-Catenin target genes CCND1 and c-MYC; experiment: RT-qPCR and western blot of PSGs, CCND1 and c-MYC in VCaP cells; assay type: cell-based, human
Procedure: PRI-724 is a pro-drug of C-82, a second-generation specific β—Catenin/CBP antagonist.
The total RNA was extracted from cultured cells or organoids using Trizol reagent (Thermo Fisher Scientific) according to the manufacturer's instructions. Complementary DNA was synthesized using reverse transcriptase (Promega). mRNA expression level was determined by real-time quantitative PCR (qPCR) using SYBR Green Mix (Thermo Fisher Scientific) with the realtime PCR system (Bio-Rad). Relative gene expression was normalized to the expression of house-keeping gene Actin Beta (ACTB).

VCaP xenografts = VCaP xenografts in SCID mice; assay type: in vivo; conditions: 25 mg/kg, 23 days
Procedure: For IHC, tissues were rehydrated, endogenous peroxidase activity was destroyed, and antigens were retrieval. Antibodies for IHC as following: anti-AR (ab108341, Abcam), anti-ERG (ab92513, Abcam), anti-Ki67 (ab15580), anti-UMPS (NOVUS, #85896), anti-RRM1 (Cell signaling technology, #8637), anti-CBP (Santa Cruz Biotechnology, sc-583), anti-LEF1 (Cell signaling technology, #2230S). For quantification, the staining score was determined by multiplying the percentage of positive cells and the intensity ranged from 1 (weak staining), 2 (median staining), and 3 (strong staining). For Ki67 quantification, cells with positive staining in the nucleus were included to calculate the percentage of Ki67 positive-staining cells.
Six-week SCID male mice were used in the study. Mice were subcutaneously injected with VCaP cells (5×10^6) mixed with Matrigel mixture (1×PBS: Matrigel (BD Biosciences)=1:1). After the xenografts reached a size of approximately 100 mm^3, mice were treated intraperitoneally with vehicle (90% corn oil (Sigma-Aldrich)+10% DMSO), ICG-001 or CBP PROTAC CP2 at 25 mg/kg for 5 days per week. For LEF1/TCF O′PROTAC administration, mice were transplanted with LuCaP23.1 PDX tumors in the approximately same volume. […] Tumor length (L) and width (W) were measured every 3 days, and tumor volumes were calculated by the formula: (L×W^2)/2. […]

[2] = physiological pH 7.4; hydrolysis of phthalimide and glutarimide moiety; cited from earlier work

Compound | VCaP cell growth (MTS) (VCaP cells) | expression of PSGs, CCND1 and c-MYC at mRNA and protein levels [1] | also measured
FITC-ERG OP-C1: Forward 5′-FITC-ACGGACCGGAAATCCGGTT-3′; reverse 5′-P1-AACCGGATTTCCGGTCCGT-3′ |  |  | uptake efficacy at 100 nM versus 1,000 nM (293T and VCaP cell lines): no difference in uptake efficacy; cellular uptake with lipofectamine 2000 versus mock transfection (293T and VCaP cell lines; 100 or 1,000 nM): greatly enhanced the cellular uptake
C[C@H]1[C@H]2N(C(=O)CN(C)N2C(=O)NCc2ccccc2)[C@@H](Cc2ccc(OP(=O)(O)O)cc2)C(=O)N1Cc1cccc2cccnc12 [PRI-724] | inhibition | inhibition | 
O=C1[C@H](Cc2ccc(O)cc2)N2C(=O)CCN(C(=O)NCc3ccccc3)[C@H]2CN1Cc1cccc2ccccc12 [ICG-001] | inhibited cell growth | decreased expression | mouse body weight (VCaP xenografts): did not result in obvious deleterious effect
O=C1CCC(N2C(=O)c3ccccc3C2=O)C(=O)N1 (centres unmarked) [thalidomide] |  |  | stability [2]: poor stability
